Results as given in patent publication US20250111889A1, “DE NOVO DESIGNED MACROCYCLIC OLIGOAMIDES” (UNIVERSITY OF WASHINGTON, priority 2022, published 2025).
Where a SMILES comes first, the peptide text is derived from it. Bridges are numbered along the chain shown (N, C = ends). [ ]: non-standard residue; d: D form. Trp(6-Cl) = N[C@@H](Cc1c[nH]c2cc(Cl)ccc12)C(=O)O; NMePhe(2,4-Me2) = CN[C@@H](Cc1ccc(C)cc1C)C(=O)O; dNMePhe(2,4-Me2) = CN[C@H](Cc1ccc(C)cc1C)C(=O)O; NMePhe(2-Me) = CN[C@@H](Cc1ccccc1C)C(=O)O; NMeNva = CCC[C@H](NC)C(=O)O

Experiments:
MCL-1 = target: T1, MCL-1 (Homo sapiens, UniProt Q07820); assay: MCL-1 assay (HTRF, Anti-GST-Tb); format: binding; conditions: 10-dose singlet, 3-fold serial dilution starting at 200 uM; HTRF signal after 60 min
T1 construct: GST
T1 sequence (Q07820 whole entry, species assumed): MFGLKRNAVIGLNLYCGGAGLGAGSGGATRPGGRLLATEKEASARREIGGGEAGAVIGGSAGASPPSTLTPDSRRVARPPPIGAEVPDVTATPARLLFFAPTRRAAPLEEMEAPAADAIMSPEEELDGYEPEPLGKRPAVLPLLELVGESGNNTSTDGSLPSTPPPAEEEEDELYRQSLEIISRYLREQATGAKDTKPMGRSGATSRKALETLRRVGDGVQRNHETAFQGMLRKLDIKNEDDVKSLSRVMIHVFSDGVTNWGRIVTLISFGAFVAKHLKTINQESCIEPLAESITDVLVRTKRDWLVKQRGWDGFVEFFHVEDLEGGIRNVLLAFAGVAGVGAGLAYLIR
Experimental: MCL-1: The compounds were tested in 10-dose IC50 singlet with a 3-fold serial dilution starting at 200 uM. Compounds in DMSO were added to enzyme solution by using Acoustic Technology. Compounds were incubated with enzyme for 10 min. at room temperature. Respective compounds were then added, and the mixture incubated for another 10 min. Finally, Anti-GST-Tb was added. After 60 min incubation, the HTRF signal was measured.

MDM2 = target: T2, MDM2 (Homo sapiens, UniProt Q00987); assay: MDM2 assay (commercial alphalisa kit, PerkinElmer AL3168C); format: binding; conditions: alphalisa kit per manufacturer's instructions; quantity not given
T2 construct: purchased PerkinElmer AL3168C
T2 sequence (Q00987 whole entry): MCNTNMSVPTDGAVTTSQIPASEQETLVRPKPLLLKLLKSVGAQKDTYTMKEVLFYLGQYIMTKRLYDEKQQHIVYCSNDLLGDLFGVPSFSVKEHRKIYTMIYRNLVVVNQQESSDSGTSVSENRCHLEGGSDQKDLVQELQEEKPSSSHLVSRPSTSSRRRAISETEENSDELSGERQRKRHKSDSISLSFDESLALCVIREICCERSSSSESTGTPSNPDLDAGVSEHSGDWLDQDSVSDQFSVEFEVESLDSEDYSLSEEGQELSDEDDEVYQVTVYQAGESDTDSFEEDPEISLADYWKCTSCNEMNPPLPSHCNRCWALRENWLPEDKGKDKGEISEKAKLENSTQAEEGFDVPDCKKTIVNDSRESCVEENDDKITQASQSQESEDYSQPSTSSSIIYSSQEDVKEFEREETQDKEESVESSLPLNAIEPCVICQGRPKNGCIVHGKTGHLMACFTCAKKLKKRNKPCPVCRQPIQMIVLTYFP
Experimental: MDM2: The assay was performed using a commercially available alphalisa assay kit from PerkinElmer (part number AL3168C) following the manufacturer's instructions.

SARS-CoV-2 main protease = target: T3, SARS-CoV-2 main protease (Severe acute respiratory syndrome coronavirus 2, UniProt P0DTD1); assay: SARS-CoV-2 main protease assay (fluorescence time-course); format: biochemical; conditions: 10-dose singlet, 3-fold serial dilution starting at 200 uM; increase in fluorescence signal
T3 construct: SARS-CoV-2 main protease
Experimental: SARS-CoV-2 main protease: The compounds were tested in 10-dose IC50 singlet with a 3-fold serial dilution starting at 200 uM. The protease activities were monitored as a time-course measurement of the increase in fluorescence signal.

in vitro = in vitro ADME; conditions: PAMPA
From the text: We measured the passive membrane diffusion of all 29 macrocycles designed with the two approaches using the parallel artificial membrane permeability assay (PAMPA) (FIGS. 3, 4, and 16). Almost all of the macrocycles were quite membrane permeable: 16 of the 29 had log(Papp)'s greater than −6, and only three were not detected in the acceptor well. Under the same conditions, the small molecule drug propranolol achieved log(Papp) of −5.36 (FIG. 16). As expected, designs with exposed polar groups, particularly side chain hydroxyls and primary amides, had lower permeabilities. Overall, the hydrogen-bond containing designs were more permeable than the torsionally-optimized based designs, likely due to fewer exposed backbone polar groups.
PAMPA: Stock solutions of each peptide were prepared gravimetrically by dissolving ca. 1-3 mg of peptide in either 100% MeOH or 100% DMSO to produce ca. 1-10 mM peptide solutions. These stock solutions were stored at 4° C. when not in use. Samples for PAMPA experiments and calibration curves were prepared by diluting these stock solutions to produce 1.2 mL of 20 uM peptide in PBS supplemented with either 5% DMSO, or 10% MeOH. […] The concentration of each peptide in the donor and acceptor wells was quantified by LCMS after approximately 19 hours. […]

| SMILES | IC50 (MCL-1) [nM] | IC50 (SARS-CoV-2 main protease) [nM] | further results |
| --- | --- | --- | --- |
| Cc1ccccc1CN1CC(=O)N[C@H](C(C)(C)C)C(=O)NCc2cccc(c2)CC(=O)N[C@H](Cc2ccc(Cl)c(Cl)c2)CC1=O [Compound 11] | 4580 | – | – |
| COc1cc(CN2CC(=O)NCc3ccccc3C(=O)N[C@@H](Cc3ccc(Cl)c(Cl)c3)C(=O)N(CCc3ccc(F)cc3)CC2=O)cc(OC)c1 [Compound 16] | 13500 | – | – |
| COc1cccc(CCN2CC(=O)N[C@H]3CC[C@H](CC3)CC(=O)N(CCc3ccc(C(F)(F)F)cc3)CC(=O)N(Cc3ccc(Cl)c(Cl)c3)CC2=O)c1 [Compound 18] | 28200 | – | – |
| CCOCCN1CC(=O)NCc2ccccc2C(=O)N[C@@H](Cc2ccc(Cl)c(Cl)c2)C(=O)N(CCc2ccc(F)cc2)CC1=O [Compound 19] | 40600 | – | – |
| COc1cccc(CCN2CC(=O)N[C@@H](C(C)C)CC(=O)NCc3cccc(c3)CC(=O)N[C@@H](Cc3ccc(Cl)c(Cl)c3)C2=O)c1 [Compound 29] | 22800 | – | – |
| CCC[C@H]1C(=O)N[C@@H](Cc2c[nH]c3cc(Cl)ccc23)C(=O)N(C)[C@@H](Cc2ccc(C)cc2C)C(=O)N[C@H](C(N)=O)CSCC(=O)N1C [Compound 32] ({CH2CO}-[NMeNva][Trp(6-Cl)][NMePhe(2,4-Me2)]C-NH2; thioether N-4) | – | – | IC50 (MDM2): 100000 nM |
| Cc1ccc(C[C@@H]2C(=O)N[C@@H](Cc3c[nH]c4cc(Cl)ccc34)C(=O)N(C)[C@@H](Cc3ccccc3C)C(=O)N[C@H](C(N)=O)CSCC(=O)N2C)c(C)c1 [Compound 35] ({CH2CO}-[dNMePhe(2,4-Me2)][Trp(6-Cl)][NMePhe(2-Me)]C-NH2; thioether N-4) | – | – | IC50 (MDM2): 20000 nM |
| Cc1ccc(C[C@@H]2NC(=O)CCCCNC(=O)CN(CCOc3c(C)cccc3C)C(=O)[C@@H](Cc3ccc(Cl)c(Cl)c3)N(C)C2=O)cc1 [Compound 119] | 18900 | – | – |
| CN1C(=O)CN(Cc2cccc(Br)c2)C(=O)CCCCNC(=O)[C@@H](Cc2ccc(C(C)(C)C)cc2)NC(=O)[C@@H]1Cc1ccc(Cl)c(Cl)c1 [Compound 121] | 50100 | – | – |
| CCC(CC)[C@H]1NC(=O)CN(Cc2ccc(Cl)c(Cl)c2)C(=O)[C@H](Cc2ccc(C(C)(C)C)cc2)NC(=O)CCCCNC1=O [Compound 122] | 12300 | – | – |
| O=C1C[C@H](Cc2c(F)c(F)c(F)c(F)c2F)NC(=O)[C@H](Cc2cccnc2)NC(=O)[C@H](Cc2cccc(C(F)(F)F)c2)NC(=O)Cc2ccccc2N1 [Compound 131] | – | 4070 | – |
| O=C1C[C@H](Cc2ccccc2Cl)NC(=O)[C@H](Cc2cccnc2)NC(=O)[C@H](Cc2cccc(Cl)c2)NC(=O)Cc2ccccc2N1 [Compound 132] | – | 1250 | – |
| Cc1ccccc1C[C@@H]1NC(=O)Cc2ccccc2NC(=O)C[C@H](Cc2ccccc2Cl)NC(=O)[C@H](Cc2cccnc2)NC1=O [Compound 133] | – | 844 | – |
| O=C1C[C@H](Cc2ccc(Br)cc2)NC(=O)[C@H](Cc2cccnc2)NC(=O)[C@H](Cc2cccc(Cl)c2)NC(=O)Cc2ccccc2N1 [Compound 134] | – | 1220 | – |
| Cc1cccc(C[C@H]2CC(=O)Nc3ccccc3CC(=O)N[C@@H](Cc3ccccc3C)C(=O)N[C@@H](Cc3cccnc3)C(=O)N2)c1 [Compound 135] | – | 1470 | – |
| O=C1C[C@H](Cc2ccc(Cl)c(Cl)c2)NC(=O)[C@H](Cc2cccnc2)NC(=O)[C@H](Cc2cccc(C(F)(F)F)c2)NC(=O)Cc2ccccc2N1 [Compound 136] | – | 1470 | – |
| O=C1C[C@H](Cc2ccc(Br)cc2)NC(=O)[C@H](Cc2cccnc2)NC(=O)[C@H](Cc2cccc(C(F)(F)F)c2)NC(=O)Cc2ccccc2N1 [Compound 137] | – | 1270 | – |
| Cc1cccc(C[C@H]2CC(=O)Nc3ccccc3CC(=O)N[C@@H](Cc3cccc(C(F)(F)F)c3)C(=O)N[C@@H](Cc3cccnc3)C(=O)N2)c1 [Compound 138] | – | 2140 | – |
| Cc1ccccc1C[C@@H]1NC(=O)Cc2ccccc2NC(=O)C[C@H](Cc2c(F)c(F)c(F)c(F)c2F)NC(=O)[C@H](Cc2cccnc2)NC1=O [Compound 139] | – | 2370 | – |
| Cc1ccccc1C[C@@H]1NC(=O)Cc2ccccc2NC(=O)C[C@H](Cc2cc(F)c(F)cc2F)NC(=O)[C@H](Cc2cccnc2)NC1=O [Compound 140] | – | 1530 | – |
| O=C1C[C@H](Cc2ccc(F)cc2)NC(=O)[C@H](Cc2cccnc2)NC(=O)[C@H](Cc2cccc(Cl)c2)NC(=O)Cc2ccccc2N1 [Compound 141] | – | 1840 | – |
| Cc1ccccc1C[C@@H]1NC(=O)Cc2ccccc2NC(=O)C[C@H](Cc2ccc(Cl)c(Cl)c2)NC(=O)[C@H](Cc2cccnc2)NC1=O [Compound 142] | – | 1890 | – |
| O=C1C[C@H](Cc2cccc(Cl)c2)NC(=O)[C@H](Cc2cccnc2)NC(=O)[C@H](Cc2cccc(Cl)c2)NC(=O)Cc2ccccc2N1 [Compound 143] | – | 2650 | – |
| O=C1C[C@H](Cc2ccccc2Cl)NC(=O)[C@H](Cc2cccnc2)NC(=O)[C@H](Cc2cccc(C(F)(F)F)c2)NC(=O)Cc2ccccc2N1 [Compound 144] | – | 1260 | – |
| Cc1ccccc1C[C@@H]1NC(=O)Cc2ccccc2NC(=O)C[C@H](Cc2ccccc2)NC(=O)[C@H](Cc2cccnc2)NC1=O [Compound 218] | – | 17800 | – |
| CC(C)NCC(O)COc1cccc2ccccc12 (centres unmarked) [propranolol] | – | – | Papp at 20 uM (in vitro): 4.37 ×10⁻⁶ cm/s |
